PubChem BioAssay AID2060910 (Molecular Pharmacology Branch, DTP, NCI, 2025)

Tested on: 242566-281-R-J2-PDC complex spheroid viability
Test: Anticancer human tumor 242566-281-R-J2-PDC patient-derived pancreatic carcinoma cell line growth inhibition [RAS]
Conditions: for IC50: curve of first compound; for viability, T/C: stronger effect = lower value
Method in brief: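 Tumour cells grown as complex spheroids with HUVEC endothelial cells and mesenchymal stem cells, treated with RAS pathway inhibitor combinations. Each agent spans half-log steps from near clinical Cmax, or 10 microM where Cmax is unknown.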

[1] = second compound 0.000949 µM, first compound 0.0316 µM
[2] = second compound 0.000949 µM, first compound 0.1 µM
[3] = second compound 0.000949 µM, first compound 0.316 µM
[4] = second compound 0.000949 µM, first compound 1 µM
[5] = second compound 0.000949 µM, first compound 3.16 µM
[6] = second compound 0.000949 µM, first compound 10 µM
[7] = second compound 0.003 µM, first compound 0.0316 µM
[8] = second compound 0.003 µM, first compound 0.1 µM
[9] = second compound 0.003 µM, first compound 0.316 µM
[10] = second compound 0.003 µM, first compound 1 µM
[11] = second compound 0.003 µM, first compound 3.16 µM
[12] = second compound 0.003 µM, first compound 10 µM
[13] = second compound 0.00949 µM, first compound 0.0316 µM
[14] = second compound 0.00949 µM, first compound 0.1 µM
[15] = second compound 0.00949 µM, first compound 0.316 µM
[16] = second compound 0.00949 µM, first compound 1 µM
[17] = second compound 0.00949 µM, first compound 3.16 µM
[18] = second compound 0.00949 µM, first compound 10 µM
[19] = second compound 0.03 µM, first compound 0.0316 µM
[20] = second compound 0.03 µM, first compound 0.1 µM
[21] = second compound 0.03 µM, first compound 0.316 µM
[22] = second compound 0.03 µM, first compound 1 µM
[23] = second compound 0.03 µM, first compound 3.16 µM
[24] = second compound 0.03 µM, first compound 10 µM
[25] = second compound 0.0949 µM, first compound 0.0316 µM
[26] = second compound 0.0949 µM, first compound 0.1 µM
[27] = second compound 0.0949 µM, first compound 0.316 µM
[28] = second compound 0.0949 µM, first compound 1 µM
[29] = second compound 0.0949 µM, first compound 3.16 µM
[30] = second compound 0.0949 µM, first compound 10 µM
[31] = second compound 0.3 µM, first compound 0.0316 µM
[32] = second compound 0.3 µM, first compound 0.1 µM
[33] = second compound 0.3 µM, first compound 0.316 µM
[34] = second compound 0.3 µM, first compound 1 µM
[35] = second compound 0.3 µM, first compound 3.16 µM
[36] = second compound 0.3 µM, first compound 10 µM
[37] = second compound 0.000949 µM, first compound 0.00316 µM
[38] = second compound 0.000949 µM, first compound 0.01 µM
[39] = second compound 0.003 µM, first compound 0.00316 µM
[40] = second compound 0.003 µM, first compound 0.01 µM
[41] = second compound 0.00949 µM, first compound 0.00316 µM
[42] = second compound 0.00949 µM, first compound 0.01 µM
[43] = second compound 0.03 µM, first compound 0.00316 µM
[44] = second compound 0.03 µM, first compound 0.01 µM
[45] = second compound 0.0949 µM, first compound 0.00316 µM
[46] = second compound 0.0949 µM, first compound 0.01 µM
[47] = second compound 0.3 µM, first compound 0.00316 µM
[48] = second compound 0.3 µM, first compound 0.01 µM
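Also: spheroids exposed to compound for 7 days before readout.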
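For viability, T/C in this document: 100% = DMSO vehicle control wells.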

With CC(C)NCC(C(=O)N1CCN(c2ncnc3c2C(C)CC3O)CC1)c1ccc(Cl)cc1 (stereo not drawn) + CCn1c(-c2cccnc2C(C)OC)c2c3cc(ccc31)N1CCOC(CC(NC(=O)C(C(C)C)N(C)C(=O)C3(F)CCN(C(=O)C#CC(C)(C)N(C)C)CC3)C(=O)N3CCCC(N3)C(=O)OCC(C)(C)C2)C1 the IC50 (second compound 0.000949 µM) was greater than 10000 nM, the IC50 (second compound 0.003 µM) was greater than 10000 nM and the IC50 (second compound 0.00949 µM) was greater than 10000 nM. The IC50 (second compound 0.03 µM) was greater than 10000 nM, the IC50 (second compound 0.0949 µM) was greater than 10000 nM and the IC50 (second compound 0.3 µM) was greater than 10000 nM. For the same compound, the viability, T/C [1] was 92%, the viability, T/C [2] was 98.4% and the viability, T/C [3] was 84.9%. The viability, T/C [4] was 92.2%, the viability, T/C [5] was 96.8% and the viability, T/C [6] was 56.7%. For the same compound, the viability, T/C [7] was 111%, the viability, T/C [8] was 73.6% and the viability, T/C [9] was 95.2%. It also gave a viability, T/C [10] of 81.6%, a viability, T/C [11] of 84.9% and a viability, T/C [12] of 55.5%. The viability, T/C [13] was 109%, the viability, T/C [14] was 70.8% and the viability, T/C [15] was 97.5%. For the same compound, the viability, T/C [16] was 79.2%, the viability, T/C [17] was 74.1% and the viability, T/C [18] was 56.4%. It also gave a viability, T/C [19] of 96%, a viability, T/C [20] of 91.2% and a viability, T/C [21] of 93.6%. The viability, T/C [22] was 79.2%, the viability, T/C [23] was 69.8% and the viability, T/C [24] was 72.7%. For the same compound, the viability, T/C [25] was 88.9%, the viability, T/C [26] was 87.5% and the viability, T/C [27] was 104%. It also gave a viability, T/C [28] of 97.7%, a viability, T/C [29] of 65.9% and a viability, T/C [30] of 59.9%. It also gave a viability, T/C [31] of 85.8%, a viability, T/C [32] of 88.7% and a viability, T/C [33] of 85.4%. It also gave a viability, T/C [34] of 74%, a viability, T/C [35] of 62.3% and a viability, T/C [36] of 52.3%.
For CC(C)n1nc(-c2ccc3oc(N)nc3c2)c2c(N)ncnc21 + CCn1c(-c2cccnc2C(C)OC)c2c3cc(ccc31)N1CCOC(CC(NC(=O)C(C(C)C)N(C)C(=O)C3(F)CCN(C(=O)C#CC(C)(C)N(C)C)CC3)C(=O)N3CCCC(N3)C(=O)OCC(C)(C)C2)C1, the IC50 (second compound 0.000949 µM) was 43.5 nM, the IC50 (second compound 0.003 µM) was 44.8 nM and the IC50 (second compound 0.00949 µM) was 25.2 nM. The IC50 (second compound 0.03 µM) was 27.3 nM, the IC50 (second compound 0.0949 µM) was 20.4 nM and the IC50 (second compound 0.3 µM) was 18.4 nM. It also gave a viability, T/C (second compound 0.000949 µM, first compound 0.000316 µM) of 120%, a viability, T/C (second compound 0.000949 µM, first compound 0.001 µM) of 86.6% and a viability, T/C [37] of 81.6%. For the same compound, the viability, T/C [38] was 79.8%, the viability, T/C [1] was 62.2% and the viability, T/C [2] was 30.4%. For the same compound, the viability, T/C (second compound 0.003 µM, first compound 0.000316 µM) was 95.6%, the viability, T/C (second compound 0.003 µM, first compound 0.001 µM) was 80.3% and the viability, T/C [39] was 76.2%. For the same compound, the viability, T/C [40] was 73%, the viability, T/C [7] was 61.6% and the viability, T/C [8] was 30.9%. It also gave a viability, T/C (second compound 0.00949 µM, first compound 0.000316 µM) of 102%, a viability, T/C (second compound 0.00949 µM, first compound 0.001 µM) of 77.9% and a viability, T/C [41] of 87.7%. For the same compound, the viability, T/C [42] was 75%, the viability, T/C [13] was 43.4% and the viability, T/C [14] was 33.9%. It also gave a viability, T/C (second compound 0.03 µM, first compound 0.000316 µM) of 89.5%, a viability, T/C (second compound 0.03 µM, first compound 0.001 µM) of 87.6% and a viability, T/C [43] of 92.4%. The viability, T/C [44] was 72.7%, the viability, T/C [19] was 47.6% and the viability, T/C [20] was 37.9%. The viability, T/C (second compound 0.0949 µM, first compound 0.000316 µM) was 76.1%, the viability, T/C (second compound 0.0949 µM, first compound 0.001 µM) was 78.8% and the viability, T/C [45] was 83.5%. It also gave a viability, T/C [46] of 67.2%, a viability, T/C [25] of 39.5% and a viability, T/C [26] of 31.9%. For the same compound, the viability, T/C (second compound 0.3 µM, first compound 0.000316 µM) was 88%, the viability, T/C (second compound 0.3 µM, first compound 0.001 µM) was 82% and the viability, T/C [47] was 70.5%. For the same compound, the viability, T/C [48] was 58.8%, the viability, T/C [31] was 42.4% and the viability, T/C [32] was 30%.
Compound CC(Nc1ccc2c(c1)OCCn1cc(N3C(=O)OCC3C(F)F)nc1-2)C(N)=O (stereo not drawn) + CCn1c(-c2cccnc2C(C)OC)c2c3cc(ccc31)N1CCOC(CC(NC(=O)C(C(C)C)N(C)C(=O)C3(F)CCN(C(=O)C#CC(C)(C)N(C)C)CC3)C(=O)N3CCCC(N3)C(=O)OCC(C)(C)C2)C1 has an IC50 (second compound 0.000949 µM) of 918 nM, an IC50 (second compound 0.003 µM) of 1110 nM and an IC50 (second compound 0.00949 µM) of 1050 nM. It also gave an IC50 (second compound 0.03 µM) of 963 nM, an IC50 (second compound 0.0949 µM) of 872 nM and an IC50 (second compound 0.3 µM) of 329 nM. The viability, T/C [1] was 108%, the viability, T/C [2] was 81.6% and the viability, T/C [3] was 54.7%. For the same compound, the viability, T/C [4] was 55%, the viability, T/C [5] was 36.5% and the viability, T/C [6] was 17.4%. The viability, T/C [7] was 91.4%, the viability, T/C [8] was 79.4% and the viability, T/C [9] was 64.8%. The viability, T/C [10] was 51.2%, the viability, T/C [11] was 37.7% and the viability, T/C [12] was 18.1%. The viability, T/C [13] was 101%, the viability, T/C [14] was 79.8% and the viability, T/C [15] was 70%. It also gave a viability, T/C [16] of 54%, a viability, T/C [17] of 29.9% and a viability, T/C [18] of 20.8%. It also gave a viability, T/C [19] of 85.4%, a viability, T/C [20] of 83% and a viability, T/C [21] of 68.8%. It also gave a viability, T/C [22] of 52.3%, a viability, T/C [23] of 26.3% and a viability, T/C [24] of 22.9%. For the same compound, the viability, T/C [25] was 88.8%, the viability, T/C [26] was 77.9% and the viability, T/C [27] was 69.9%. For the same compound, the viability, T/C [28] was 48.6%, the viability, T/C [29] was 25.5% and the viability, T/C [30] was 17.7%. It also gave a viability, T/C [31] of 77.5%, a viability, T/C [32] of 67.5% and a viability, T/C [33] of 50.4%. The viability, T/C [34] was 33.1%, the viability, T/C [35] was 22.7% and the viability, T/C [36] was 16.2%.
In the case of O=C(c1ccc(F)c(F)c1Nc1ccc(I)cc1F)N1CC(O)([C@@H]2CCCCN2)C1 + CCn1c(-c2cccnc2C(C)OC)c2c3cc(ccc31)N1CCOC(CC(NC(=O)C(C(C)C)N(C)C(=O)C3(F)CCN(C(=O)C#CC(C)(C)N(C)C)CC3)C(=O)N3CCCC(N3)C(=O)OCC(C)(C)C2)C1, the IC50 (second compound 0.000949 µM) is reported as 96.3 nM, the IC50 (second compound 0.003 µM) is reported as 123 nM and the IC50 (second compound 0.00949 µM) is reported as 116 nM. It also gave an IC50 (second compound 0.03 µM) of 119 nM, an IC50 (second compound 0.0949 µM) of 90.7 nM and an IC50 (second compound 0.3 µM) of 52.1 nM. The viability, T/C [37] was 92.3%, the viability, T/C [38] was 90.8% and the viability, T/C [1] was 51.1%. For the same compound, the viability, T/C [2] was 53.2%, the viability, T/C [3] was 38.9% and the viability, T/C [4] was 19.5%. For the same compound, the viability, T/C [39] was 87.2%, the viability, T/C [40] was 77.5% and the viability, T/C [7] was 65.7%. The viability, T/C [8] was 52.9%, the viability, T/C [9] was 38.7% and the viability, T/C [10] was 18.9%. The viability, T/C [41] was 101%, the viability, T/C [42] was 69% and the viability, T/C [13] was 78.5%. It also gave a viability, T/C [14] of 51.1%, a viability, T/C [15] of 33.7% and a viability, T/C [16] of 21%. It also gave a viability, T/C [43] of 93.3%, a viability, T/C [44] of 89.4% and a viability, T/C [19] of 76.9%. For the same compound, the viability, T/C [20] was 54.9%, the viability, T/C [21] was 29.3% and the viability, T/C [22] was 22.4%. For the same compound, the viability, T/C [45] was 97.9%, the viability, T/C [46] was 88.1% and the viability, T/C [25] was 68%. The viability, T/C [26] was 52%, the viability, T/C [27] was 26.5% and the viability, T/C [28] was 22.1%. For the same compound, the viability, T/C [47] was 87%, the viability, T/C [48] was 75.3% and the viability, T/C [31] was 60.6%. The viability, T/C [32] was 36.9%, the viability, T/C [33] was 24.2% and the viability, T/C [34] was 15.8%.
